Experimental data taken from patent US10544146B2, “Bicyclic compounds and their use as antibacterial agents and β-lactamase inhibitors” (priority 2011, dated 2020).

Tests used:
Assay type in all cases: cell-based
P. aerug JMI 2686 = assay: MIC, antibacterial and synergistic activity; settings: substance alone
E. coli JMI 10767 = assay: MIC, antibacterial and synergistic activity; settings: substance alone
Method: (§1) In the Tables 10-12, compounds of the present invention were tested in combination with various antibiotics against metallo β-lactamase producing bacteria.

K. pneumo JMI 2697 = assay: MIC, antibacterial and synergistic activity; settings: substance alone
Method: as §1

E. coli ATCC 25922 = assay: MIC, antibacterial and synergistic activity
Method: as §1

K. pneumo JMI 2699 = assay: MIC, antibacterial and synergistic activity; settings: substance alone
Method: as §1

K. pneumo JMI 2693 = assay: MIC, antibacterial and synergistic activity; settings: substance alone
Method: as §1

E. coli JMI 2671 = assay: MIC, antibacterial and synergistic activity; settings: substance alone
Method: as §1

E. coli JMI 2692 = assay: MIC, antibacterial and synergistic activity; settings: substance alone
Method: as §1

E. cloacae JMI 36 = assay: MIC, antibacterial and synergistic activity; settings: substance alone
Method: as §1

A. baumanii JMI 2659 = assay: MIC, antibacterial and synergistic activity; settings: substance alone
Method: as §1

P. aerug JMI 149 = assay: MIC, antibacterial and synergistic activity; settings: substance alone
Method: as §1

K. pneumo JMI 4106 = assay: MIC, antibacterial and synergistic activity; settings: K. pneumo JMI 4106, KPC-3, TEM-1, SHV-12, SHV-141; substance alone
K. pneumo JMI 4088 = assay: MIC, antibacterial and synergistic activity; settings: substance alone
E. coli JMI 4080 = assay: MIC, antibacterial and synergistic activity; settings: substance alone
E. coli JMI 10768 = assay: MIC, antibacterial and synergistic activity; settings: substance alone
E. coli JMI 10770 = assay: MIC, antibacterial and synergistic activity; settings: substance alone
K. pneumo JMI 2681 = assay: MIC, antibacterial and synergistic activity; settings: substance alone
E. coli JMI 11103 = assay: MIC, antibacterial and synergistic activity; settings: substance alone
K. pneumo JMI 2674 = assay: MIC, antibacterial and synergistic activity; settings: substance alone
K. pneumo JMI 2673 = assay: MIC, antibacterial and synergistic activity; settings: substance alone
E. coli JMI 4103 = assay: MIC, antibacterial and synergistic activity; settings: substance alone
K. pneumo JMI 4109 = assay: MIC, antibacterial and synergistic activity; settings: substance alone
E. coli JMI 2665 = assay: MIC, antibacterial and synergistic activity; settings: for MIC alone: substance alone
[1] = test system: metallo β-lactamase producing bacteria; assay: MIC in combination with various antibiotics against metallo β-lactamase producing bacteria (Tables 10-12); settings: substance alone
Method: as §1

[2] = P. aerug JMI 2686, KPC-2 (Cpase)
[3] = K. pneumo JMI 2697, IMP-4 (Cpase)
[4] = K. pneumo JMI 2699, VIM-1, CTX-M3
[5] = K. pneumo JMI 2693, NDM-1 (Cpase)
[6] = K. pneumo JMI 4088, KPC-3 (Cpase)
[7] = K. pneumo JMI 2681, Oxa-48 (Cpase)
[8] = K. pneumo JMI 2674, CTX-M15 (ESBL)
[9] = K. pneumo JMI 2673, CTX-M14 (ESBL)
[10] = K. pneumo JMI 4109, SHV-1, SHV-12

O=C(NNC(=O)[C@H]1CC[C@H]2CN1C(=O)N2OS(=O)(=O)O)C1CNC1 (stereo in doubt) [Ex. 67, (2R,5S)-N′-(azetidin-3-ylcarbonyl)-7-oxo-6-(sulfooxy)-1,6-diazabicyclo[3.2.1]octane-2-carbohydrazide]
MIC (P. aerug JMI 2686; [2]): 16 µg/mL
MIC (E. coli JMI 10767; Escherichia coli, JMI10767, E. coli JMI 10767, Wt): > 16 µg/mL
MIC (K. pneumo JMI 2697; [3]): 16 µg/mL
MIC (E. coli ATCC 25922; Escherichia coli, ATCC25922, E. coli ATCC 25922, enzyme Wt; substance alone): > 16 µg/mL
MIC (K. pneumo JMI 2699; [4]): > 16 µg/mL
MIC (K. pneumo JMI 2693; [5]): > 16 µg/mL
MIC (E. coli JMI 2671; Escherichia coli, JMI2671, E. coli JMI 2671, VIM-19 (Cpase)): > 16 µg/mL
MIC (E. coli JMI 2692; Escherichia coli, JMI2692, E. coli JMI 2692, NDM-1, TEM-1, CTX-M-15): 8 µg/mL
MIC (E. cloacae JMI 36; Enterobacter cloacae, JMI36, E. cloacae JMI 36, P99): > 16 µg/mL
MIC (A. baumanii JMI 2659; Acinetobacter baumannii, JMI2659, A. baumanii JMI 2659, Ges-14 (Cpase)): > 16 µg/mL
MIC (P. aerug JMI 149; P. aerug JMI 149, Bla+++D+): 16 µg/mL
MIC (K. pneumo JMI 4106): 8 µg/mL
MIC (K. pneumo JMI 4088; [6]): 16 µg/mL
MIC (E. coli JMI 4080; Escherichia coli, JMI4080, E. coli JMI 4080, Tem-10): 16 µg/mL
MIC (E. coli JMI 10768; Escherichia coli, JMI10768, E. coli JMI 10768, CTX-M15 (Weak ESBL)): > 16 µg/mL
MIC (E. coli JMI 10770; Escherichia coli, JMI10770, E. coli JMI 10770, CTX-M15 (Hyper ESBL)): > 16 µg/mL
MIC (K. pneumo JMI 2681; [7]): > 16 µg/mL
MIC (E. coli JMI 11103; Escherichia coli, JMI11103, E. coli JMI 11103, CTX-M15 (Intermediate ESBL)): > 16 µg/mL
MIC (K. pneumo JMI 2674; [8]): > 16 µg/mL
MIC (K. pneumo JMI 2673; [9]): > 16 µg/mL
MIC (E. coli JMI 4103; Escherichia coli, JMI4103, E. coli JMI 4103, KPC-2, Tem-1, CMY-Type): 16 µg/mL
MIC (K. pneumo JMI 4109; [10]): 4 µg/mL
MIC (E. coli JMI 2665; Escherichia coli, JMI2665, read-out: MIC alone): 8 µg/mL

C[C@@H](O)[C@H]1C(=O)N2C(C(=O)O)=C(S[C@@H]3CN[C@H](C(=O)N(C)C)C3)[C@H](C)[C@H]12 [Meropenem, meropenem]
MIC alone (P. aerug JMI 2686; [2]): 512 µg/mL
MIC alone (P. aerug JMI 2686; P. aerug JMI 2686, enzyme KPC-2 (Cpase)): 512 µg/mL
MIC alone (E. coli JMI 10767; E. coli JMI 10767, Wt): ≤1 µg/mL
MIC alone (E. coli JMI 10767; E. coli JMI 10767, enzyme Wt): ≤1 µg/mL
MIC alone (K. pneumo JMI 2697; [3]): 64 µg/mL
MIC alone (K. pneumo JMI 2697; K. pneumo JMI 2697, enzyme IMP-4 (Cpase)): 64 µg/mL
MIC alone (E. coli ATCC 25922; E. coli ATCC 25922, enzyme Wt; substance alone): 0.06 µg/mL
MIC alone (E. coli ATCC 25922; E. coli ATCC 25922; enzyme Wt; substance alone): 0.06 µg/mL
MIC alone (K. pneumo JMI 2699; [4]): 32 µg/mL
MIC alone (K. pneumo JMI 2699; K. pneumo JMI 2699, enzyme VIM-1, CTX-M3): 32 µg/mL
MIC alone (K. pneumo JMI 2693; [5]): 8 µg/mL
MIC alone (K. pneumo JMI 2693; K. pneumo JMI 2693, enzyme NDM-1 (Cpase)): 8 µg/mL
MIC alone (E. coli JMI 2671; E. coli JMI 2671, VIM-19 (Cpase)): 64 µg/mL
MIC alone (E. coli JMI 2671; E. coli JMI 2671, enzyme VIM-19 (Cpase)): 64 µg/mL
MIC alone (E. coli JMI 2692; E. coli JMI 2692, NDM-1, TEM-1, CTX-M-15): 256 µg/mL
MIC alone (E. coli JMI 2692; E. coli JMI 2692, enzyme NDM-1, TEM-1, CTX-M-15): 256 µg/mL
MIC alone (E. cloacae JMI 36; E. cloacae JMI 36, P99): ≤1 µg/mL
MIC alone (E. cloacae JMI 36; E. cloacae JMI 36, enzyme P99): ≤1 µg/mL
MIC alone (A. baumanii JMI 2659; A. baumanii JMI 2659, Ges-14 (Cpase)): 64 µg/mL
MIC alone (A. baumanii JMI 2659; A. baumanii JMI 2659, enzyme Ges-14 (Cpase)): 64 µg/mL
MIC alone (P. aerug JMI 149; P. aerug JMI 149, Bla+++D+): 4 µg/mL
MIC alone (P. aerug JMI 149; P. aerug JMI 149, enzyme Bla+++D+): 4 µg/mL
MIC alone (K. pneumo JMI 4088; [6]): 512 µg/mL
MIC alone (K. pneumo JMI 4088; K. pneumo JMI 4088, enzyme KPC-3 (Cpase)): 512 µg/mL
MIC alone (E. coli JMI 4080; E. coli JMI 4080, Tem-10): ≤1 µg/mL
MIC alone (E. coli JMI 4080; E. coli JMI 4080, enzyme Tem-10): ≤1 µg/mL
MIC alone (E. coli JMI 10768; E. coli JMI 10768, CTX-M15 (Weak ESBL)): ≤1 µg/mL
MIC alone (E. coli JMI 10768; E. coli JMI 10768, enzyme CTX-M15 (Weak ESBL)): ≤1 µg/mL
MIC alone (E. coli JMI 10770; E. coli JMI 10770, CTX-M15 (Hyper ESBL)): ≤1 µg/mL
MIC alone (E. coli JMI 10770; E. coli JMI 10770, enzyme CTX-M15 (Hyper ESBL)): ≤1 µg/mL
MIC alone (K. pneumo JMI 2681; [7]): 64 µg/mL
MIC alone (K. pneumo JMI 2681; K. pneumo JMI 2681, enzyme Oxa-48 (Cpase)): 64 µg/mL
MIC alone (E. coli JMI 11103; E. coli JMI 11103, CTX-M15 (Intermediate ESBL)): ≤1 µg/mL
MIC alone (E. coli JMI 11103; E. coli JMI 11103, enzyme CTX-M15 (Intermediate ESBL)): ≤1 µg/mL
MIC alone (K. pneumo JMI 2674; [8]): ≤1 µg/mL
MIC alone (K. pneumo JMI 2674; K. pneumo JMI 2674, enzyme CTX-M15 (ESBL)): ≤1 µg/mL
MIC alone (K. pneumo JMI 2673; [9]): ≤1 µg/mL
MIC alone (K. pneumo JMI 2673; K. pneumo JMI 2673, enzyme CTX-M14 (ESBL)): ≤1 µg/mL
MIC alone (E. coli JMI 4103; E. coli JMI 4103, KPC-2, Tem-1, CMY-Type): 64 µg/mL
MIC alone (E. coli JMI 4103; E. coli JMI 4103, enzyme KPC-2, Tem-1, CMY-Type): 64 µg/mL
MIC alone ([1]; Citrobacter freundii isolate 49469, NDM-1): 16 µg/mL
MIC alone ([1]; Enterobacter aerogenes isolate 8397, VIM-1): 64 µg/mL
MIC alone ([1]; Enterobacter aerogenes isolate 47683, VIM-12): 8 µg/mL
MIC alone ([1]; Enterobacter cloacae isolate 4, VIM-6): 2 µg/mL
MIC alone ([1]; Enterobacter cloacae isolate 10, IMP-26): 16 µg/mL
MIC alone ([1]; Enterobacter cloacae isolate 25, IMP-4): 16 µg/mL
MIC alone ([1]; Enterobacter cloacae isolate 1068, VIM-2): 2 µg/mL
MIC alone ([1]; Enterobacter cloacae isolate 1471, VIM-1): 2 µg/mL
MIC alone ([1]; Enterobacter cloacae isolate 1874, IMP-21): 4 µg/mL
MIC alone ([1]; Enterobacter cloacae isolate 3686, IMP-1): 8 µg/mL
MIC alone ([1]; Enterobacter cloacae isolate 53477, NDM-1): 32 µg/mL
MIC alone ([1]; Escherichia coli isolate 13, IMP-1): 4 µg/mL
MIC alone ([1]; Escherichia coli isolate 17, NDM-1): 32 µg/mL
MIC alone ([1]; Escherichia coli isolate 49, NDM-1): 8 µg/mL
MIC alone ([1]; Escherichia coli isolate 53749, NDM-1): 64 µg/mL
MIC alone ([1]; Klebsiella oxytoca isolate 24825, IMP-26): 32 µg/mL
MIC alone ([1]; Klebsiella oxytoca isolate 31141, VIM-23): 2 µg/mL
MIC alone ([1]; Klebsiella pneumoniae isolate 16, VIM-5): 8 µg/mL
MIC alone ([1]; Klebsiella pneumoniae isolate 38, NDM-1): 32 µg/mL
MIC alone ([1]; Providencia stuartii isolate 26582, VIM-1): 1 µg/mL
MIC alone ([1]; Serratia marcescens isolate 35, IMP-4): 8 µg/mL
MIC alone ([1]; Serratia marcescens isolate 36098, IMP-19): 8 µg/mL
MIC alone (K. pneumo JMI 4109; [10]): ≤1 µg/mL
MIC alone (K. pneumo JMI 4109; K. pneumo JMI 4109, enzyme SHV-1, SHV-12): ≤1 µg/mL
MIC alone (E. coli JMI 2665; E. coli JMI 2665, CMY-2 (Plasmid Cpase)): ≤1 µg/mL
MIC alone (E. coli JMI 2665; E. coli JMI 2665, enzyme CMY-2 (Plasmid Cpase)): ≤1 µg/mL
